Test results published in patent US20180355369A1, “Method for Increasing Plant Stress Tolerance and Seed Dormancy” (The Australian National University, priority 2015, published 2018).
“Also recorded” adds a separate entry of the source.

Key:
guard cells [1] = experiment: ROS accumulation in guard cells of epidermal peels; format: cell-based, Arabidopsis; details: wild type, ost1-2 and ost1-2 alx8
Procedure: The ABA- and PAP-induced accumulation of ROS in guard cells of epidermal peels was measured using dichlorofluorescein diacetate (H2DCFDA, Invitrogen). After 2 h of incubation in OB, the epidermal peel was incubated with 20 μM dye dissolved in DMSO and MB for 30 min, and then rinsed with MB three times. Epidermal peels were incubated in ABA or PAP dissolved in MB (or MB only as a negative control) for 10 min. Fluorescence images were taken using a Leica inverted confocal microscope controlled by the LAS AF software (Leica Microsystems, Germany). We used the 496-nm excitation line of an argon multiline laser. H2DCFDA fluorescence emission was detected at 505 to 525 nm. Chloroplast fluorescence was detected at 680 to 700 nm in order to separate the autofluorescence of chlorophyll in guard cells. Images were quantified with Image J software (National Institutes of Health, USA). The background signal was measured from the empty region of the similar size and subtracted from the stomata signal to obtain corrected total stomatal fluorescence values. Each stomate was considered to represent a single biological unit and thus fluorescence values were averaged across all stomata at each time point for each treatment. At least three biological replicates were measured for each treatment.

[2] = PAP quantification in leaves after exogenous ABA; format: in vivo, Arabidopsis; details: wild type leaves
Procedure: (§1) Five- to six-week-old plants were used to prepare epidermal peels. ABA at a concentration of 20 μM in water was root fed to hydroponically grown plants or sprayed onto leaves using a Studio Series IS-875 with a 0.5 mm nozzle opening (Iwata). We investigated if PAP accumulation in the double mutants could affect the production of NO during ABA-induced stomatal closure by treating epidermal peels with the inhibitor of NO synthase N(G)-methyl-L-arginine (NMA). For the investigation of the effect of different chemicals on stomatal closure, 20 μM ABA (Sigma-Aldrich), 100 mM LiCl, or 1 mM ATP, 1 mM or 100 μM PAP (Sigma-Aldrich) alone or in different combinations were prepared in infiltration buffer (1 mM PIPES KOH pH 6.0, 1 mM Sodium citrate, 1 mM KCl, 15 mM Sucrose) modified from a cordycepin infiltration buffer.
(§2) Total adenosines were extracted with 0.1 M HCl, derivatization with chloroacetaldehyde and quantified fluorometrically after HPLC fractionation. 3′-phosphoadenosine 5′-phosphate (PAP) quantification was performed by integrating the HPLC peak area and converting these to pmol units using standard curves of 1, 5 and 10 pmol standard.

stomata [3] = experiment: Stomatal aperture in epidermal leaf peels; format: cell-based, Arabidopsis
Procedure: as §1
Measurements of stomatal aperture were performed with epidermal strips taken from five- to six-week-old plants. Fully developed leaves were cut and placed with their adaxial side onto cello tape. The vein was removed by razor blade and the abaxial epidermis was subsequently peeled off by using another strip of cello tape. To promote stomatal opening, the peels left adhered to the Scotch (810D Magic Tape, ¾ inch, 3M) were placed in petri dishes filled with stomatal opening solution (10 mM MES, 5 mM KCl, 50 μM CaCl2, pH 6.5) and incubated for 2 h at 22° C. under 150-200 μmol photons m^−2 s^−1 of light. Once the stomata were fully open, strips were maintained in the opening buffer or treated with various compounds according to the experiment. After treatment, photographs of stomata were taken using Leica microscope (Leica Microsystems, Wetzlar, Germany) at 20×. Stomatal aperture was measured using the image-processing software ImageJ. For stomatal aperture measurements, the ratio of stomatal pore width and length was used instead of width as this normalizes the pores of stomata of different size. Small stomata with a stomatal pore length of less than 7.5 μm were discarded. For each data point, 90 stomata were measured in 3 independent experiments. In each experiment, 10 stomata were measured in 3 epidermal strips per sample per treatment.
(§3) Measurements of stomatal closure in response to ABA, PAP, cordycepin and ATP treatments were performed on epidermal strips from Arabidopsis and barley plants grown under specific conditions. Plants were grown under high humidity (approximately 80% RH) and 12 h/12 h and 22/20° C. light/dark cycle in a growth chamber. Epidermal peels of newly expanding true leaves of three to four-week old plants. Stomatal apertures were measured in epidermal peels of newly expanded leaves. Peels were taken from the abaxial leaf surface and were fixed to the glass bottom of the experimental chamber after coating the chamber surface with an optically clear and pressure-sensitive silicon adhesive (Factor II, Tucson, USA). The attached epidermal peel is subsequently immersed in an opening buffer (OB: 50 mM KCl, 5 mM MES titrated to pH 6.1 with NaOH) and incubated, at plant growth conditions, for approximately 2 h. Stomatal images were taken using a bright-field microscope capable of 400× magnification for 10 minutes in OB and subsequently in Measuring Buffer [MB: 10 mM KCl, 5 mM MES titrated to pH 6.1 with Ca(OH)2] or PAP or cordycepin or ABA (dissolved in MB) for another 50 min. In total this was a 60 minute time course and images of the epidermal section were taken every 5 minutes using NIS Elements software (Nikon, Japan). Stomata aperture width and length were measured using Image J (NIH, USA). The pore area of each stomate was calculated using these values under the assumption that the area of a stomatal pore was that of an ellipse. Data are expressed as percentage over the control.

guard cells [4] = experiment: Ion fluxes (K+, Cl- and Ca2+) in guard cells; format: cell-based, Arabidopsis; details: wild type, ost1-2, alx8 and ost1-2 alx8
stomata [5] = experiment: Stomatal aperture in barley leaf epidermal peels; format: cell-based; details: exogenous PAP 100 μM
Procedure: as §3, with “Stomatal images were taken using a bright-field microscope capable of 400× magnification for 10 minutes in OB and subsequently in Measuring Buffer [MB: 10 mM KCl, 5 mM MES titrated to pH 6.1 with Ca(OH)2] or PAP or cordycepin or ABA (dissolved in MB) for another 50 min. In total this was a 60 minute time course and images of the epidermal section were taken every 5 minutes using NIS Elements software (Nikon, Japan).” left out

seeds = experiment: Seed germination assay; format: in vivo, Arabidopsis
Procedure: Seeds used for germination assays were 3-months-old and all from seed stocks produced and harvested from plants grown under identical conditions at the same time. Seeds were sterilized and grown on 0.8% (w/v) agar plates containing Murashige-Skoog (MS) nutrients and 2% (w/v) sucrose. Different combinations of 0, 1 μM ABA, 0, 0.5 μM paclobutrazol and/or 0, 100, 500 and 1000 μM PAP were supplemented into the media using the infiltration buffer. At least 70-100 seeds from each genotype were plated on the same plate for efficient comparison. The seeds were stratified at 4° C. in the dark for 48 h before transfer to a growth cabinet and grown at 22° C. under 24-h light (100 μmol photons m^−2 s^−1) unless stated otherwise. The germination was scored after 3 days as the emergence of the radicle through the seed coat and the germination rate was calculated as the percentage of the total number of seeds per treatment with five replicates for each treatment. The experiment was repeated twice and statistical analyses are described below.

[6] = PAP accumulation in leaves after petiole feeding; format: in vivo, Arabidopsis; details: petiole feeding of PAP for 1 h, alone or co-applied with LiCl or ATP
Procedure: as §1, §2

## CC1=CC(=O)CC(C)(C)C1(O)/C=C/C(C)=C\C(=O)O (centres unmarked) [ABA]
Guard cells [1]
  ROS burst in guard cells: ROS burst known to stimulate stomatal closure was observed in response to ABA treatment in wild type
[2]
  PAP accumulation stimulated by exogenous ABA: stimulates PAP accumulation by four fold
Stomata [3]; epidermal peels, FIGS. 5B and 5D
  time to ABA-induced stomatal closure: < 10 min

## Nc1ncnc2c1ncn2[C@@H]1O[C@H](COP(=O)(O)O)[C@@H](OP(=O)(O)O)[C@H]1O [PAP, 3′-phosphoadenosine 5′-phosphate]
Guard cells [4]
  ion fluxes: mediated similar rapid changes in ion fluxes in all genotypes
Stomata [5]
  stomatal conductance in barley: regulates stomatal conductance in barley
Guard cells [1]
  ROS burst in guard cells: phenocopying of the timing and extent of the ABA-induced ROS burst
Stomata [3]; PAP together with ABA
  magnitude and rate of ABA-mediated stomatal closure with added PAP: further enhanced
Stomata [3]; leaf peels of wild type plants, 1 hr, PAP 100 μM, ABA 100 μM, cordycepin 10 μM
  stomatal closure in leaf peels: elicited rapid stomatal closure similar to the ABA response; also recorded: nearly identical to that of ABA
seeds; abi1-1 seeds, addition of PAP alone
  ABA responsiveness of germination in abi1-1: restored ABA responsiveness in abi1-1
seeds; wild type seeds, exogenous PAP in conjunction with exogenous ABA (1 μM) or lower GA
  seed germination / dormancy: extended the dormancy of seeds; also recorded: repress germination in wild type seeds in a dose-dependent manner
[6]
  accumulation of PAP in leaves: results in accumulation of PAP in leaves
